Measurements taken from ChEMBL document CHEMBL1201862, “PubChem BioAssay data set” (2004).
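Method: 48-hour compound exposure of cells in 96-well plates, five concentrations, linear interpolation of endpoints. The concentration for 50% growth inhibition is given as GI50.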 The source made the active and inactive calls. No stated cut-off is given here; in the data, active = GI50 up to about 1.1 µM and inactive = higher.

Experiments:
Test in all cases: growth of human tumour cells (NCI), 48 h
[1] = tested on: HCC 2998
[2] = tested on: SK-MEL-2
[3] = tested on: 786-0
[4] = tested on: UACC-62
[5] = tested on: HT-29
[6] = tested on: MDA-N
[7] = tested on: UO-31
[8] = tested on: MCF7
[9] = tested on: DU-145
[10] = tested on: LOX IMVI
[11] = tested on: Malme-3M
[12] = tested on: OVCAR-3
[13] = tested on: HL-60
[14] = tested on: SK-MEL-28
[15] = tested on: NCI-H226
[16] = tested on: SF-539

| SMILES | GI50 [1] | GI50 [2] | GI50 [3] | GI50 [4] | GI50 [5] | GI50 [6] | GI50 [7] | GI50 [8] | GI50 [9] | GI50 [10] | GI50 [11] | GI50 [12] | GI50 [13] | GI50 [14] | GI50 [15] | GI50 [16] |
| --- | --- | --- | --- | --- | --- | --- | --- | --- | --- | --- | --- | --- | --- | --- | --- | --- |
| O=C(c1ccccc1)c1ccc(N2C(=O)/C(=C/c3cccc(Oc4ccccc4)c3)N=C2c2ccccc2)c(N2C(=O)/C(=C/c3cccc(Oc4ccccc4)c3)N=C2c2ccccc2)c1 | 20 µM (inactive) | 17.7 µM (inactive) | 31.5 µM (inactive) | 11.9 µM (inactive) | 30.9 µM (inactive) | 5.09 µM (inactive) | 33.3 µM (inactive) | 24.9 µM (inactive) | 46.5 µM (inactive) | 32.9 µM (inactive) | 19.5 µM (inactive) | 18.9 µM (inactive) | 6.47 µM (inactive) | 51.3 µM (inactive) |  |  |
| Nc1ncnc2c1ncn2[C@H]1C=C[C@@H](NO)C1 | > 100 µM (inactive) | > 100 µM (inactive) | > 100 µM (inactive) | > 100 µM (inactive) |  | > 100 µM (inactive) | > 100 µM (inactive) | > 100 µM (inactive) | > 100 µM (inactive) | > 100 µM (inactive) | > 100 µM (inactive) | > 100 µM (inactive) |  | > 100 µM (inactive) | > 100 µM (inactive) | > 100 µM (inactive) |
| CN(C)c1ccc2nc3c(C(=O)O)cc(O)c(O)c3[o+]c2c1 |  | 16.3 µM (inactive) | 29.1 µM (inactive) | 20 µM (inactive) | 38.5 µM (inactive) | 23.1 µM (inactive) | 28.6 µM (inactive) | 21.1 µM (inactive) | 31.8 µM (inactive) | 33.1 µM (inactive) | 6.49 µM (inactive) | 13.3 µM (inactive) | 22.3 µM (inactive) | 43 µM (inactive) | 56.5 µM (inactive) | 27 µM (inactive) |
| CCC(C)C(=O)OCC(=O)c1ccc(-c2ccccc2)cc1 (stereo unspecified) | > 100 µM (inactive) | 41.6 µM (inactive) | > 100 µM (inactive) | 79.3 µM (inactive) | 34.6 µM (inactive) | 45.7 µM (inactive) | > 100 µM (inactive) | 44.8 µM (inactive) | 52.2 µM (inactive) | 34.7 µM (inactive) | 29.1 µM (inactive) | 37.8 µM (inactive) | > 100 µM (inactive) | 72.9 µM (inactive) |  | > 100 µM (inactive) |
| COc1cccc(N2N=C3c4ccccc4-n4c(nc5ccccc54)C3C2N)c1 (stereo unspecified) | > 100 µM (inactive) | > 100 µM (inactive) | > 100 µM (inactive) | > 100 µM (inactive) | > 100 µM (inactive) | > 100 µM (inactive) | > 100 µM (inactive) | 79.6 µM (inactive) | > 100 µM (inactive) | > 100 µM (inactive) | 66.1 µM (inactive) | > 100 µM (inactive) | > 100 µM (inactive) | > 100 µM (inactive) |  | > 100 µM (inactive) |
| O=c1c2cc([N+](=O)[O-])ccc2[nH]n1Cc1ccccc1Cl | 57.9 µM (inactive) |  | 64.9 µM (inactive) | > 100 µM (inactive) | 54.8 µM (inactive) | > 100 µM (inactive) | 39 µM (inactive) |  | 47 µM (inactive) | > 100 µM (inactive) | 26.7 µM (inactive) | > 100 µM (inactive) | 30.8 µM (inactive) | 44.6 µM (inactive) | 74.1 µM (inactive) | 98.4 µM (inactive) |
| CC(C)C1(NC(=O)C2CC3c4cccc5[nH]cc(c45)CC3N(C)C2)OC2(O)C3CCCN3C(=O)C(Cc3ccccc3)N2C1=O (stereo unspecified) | 19 µM (inactive) | 29.2 µM (inactive) | 36.7 µM (inactive) | 65.8 µM (inactive) | 11.6 µM (inactive) | 22.3 µM (inactive) | 12.9 µM (inactive) | 13.6 µM (inactive) | 51.2 µM (inactive) | 12.1 µM (inactive) |  | 16.2 µM (inactive) | 6.62 µM (inactive) | 24.9 µM (inactive) |  | 15.4 µM (inactive) |
| COc1ccc2c(c1)/C(=C\c1c(Cl)nc3sc(C)cn13)C(=O)N2 | 6.43 µM (inactive) | 2.87 µM (inactive) | 4.22 µM (inactive) | 3.29 µM (inactive) | 2.41 µM (inactive) | 0.418 µM (active) | 5.45 µM (inactive) | 3.52 µM (inactive) | 5.74 µM (inactive) | 4.22 µM (inactive) | 2.37 µM (inactive) | 2.41 µM (inactive) | 1.34 µM (inactive) | 8.17 µM (inactive) |  | 2.01 µM (inactive) |
| CCn1c(-c2ccccc2)nc2c1C(=O)c1ccccc1C2=O | 18.2 µM (inactive) |  | 84.9 µM (inactive) | 15.8 µM (inactive) | 8.99 µM (inactive) | 18.8 µM (inactive) |  | 25.5 µM (inactive) | 28.1 µM (inactive) |  | 8.81 µM (inactive) | 5.89 µM (inactive) | 18 µM (inactive) | 56 µM (inactive) | 24.4 µM (inactive) | 32.4 µM (inactive) |
| CCO/C(=N/S(=O)(=O)C(F)(F)F)N(C(C)C)C(C)C |  | > 100 µM (inactive) | > 100 µM (inactive) | > 100 µM (inactive) | > 100 µM (inactive) | > 100 µM (inactive) |  | > 100 µM (inactive) | > 100 µM (inactive) | > 100 µM (inactive) | > 100 µM (inactive) |  | > 100 µM (inactive) | > 100 µM (inactive) |  | 47 µM (inactive) |
| CCOC(=O)NN(C(=O)OCC)c1ccc(/N=N/c2ccc(OC)cc2)n1C | 31.3 µM (inactive) | 10.8 µM (inactive) | 32.2 µM (inactive) | 99.1 µM (inactive) | 22.4 µM (inactive) | 19.7 µM (inactive) | 0.653 µM (active) | 6 µM (inactive) |  | 21.5 µM (inactive) | 25.2 µM (inactive) | 18.5 µM (inactive) | 19.2 µM (inactive) |  | 26.2 µM (inactive) | 18.4 µM (inactive) |
| O=C(NCCc1n[nH]c2c1C(=O)C=C(Nc1ccccc1)C2=O)OCc1ccccc1 |  | > 100 µM (inactive) | 47.1 µM (inactive) | 8.09 µM (inactive) | > 100 µM (inactive) | > 100 µM (inactive) | > 100 µM (inactive) | > 100 µM (inactive) | > 100 µM (inactive) | > 100 µM (inactive) |  | > 100 µM (inactive) | > 100 µM (inactive) |  | > 100 µM (inactive) | > 100 µM (inactive) |
| Clc1cc(OCC23CC4CC(CC(C4)C2)C3)nc(OCC23CC4CC(CC(C4)C2)C3)n1 | > 100 µM (inactive) | > 100 µM (inactive) | > 100 µM (inactive) | > 100 µM (inactive) | > 100 µM (inactive) | > 100 µM (inactive) | > 100 µM (inactive) | > 100 µM (inactive) | > 100 µM (inactive) | > 100 µM (inactive) | > 100 µM (inactive) | > 100 µM (inactive) | > 100 µM (inactive) | > 100 µM (inactive) |  | > 100 µM (inactive) |
| O=C(O)Cc1ccc(-n2nnc3c(=O)[nH][nH]c(=O)c32)cc1 | > 100 µM (inactive) | > 100 µM (inactive) | > 100 µM (inactive) |  | > 100 µM (inactive) | > 100 µM (inactive) | > 100 µM (inactive) | > 100 µM (inactive) | > 100 µM (inactive) | > 100 µM (inactive) | > 100 µM (inactive) | > 100 µM (inactive) | > 100 µM (inactive) | > 100 µM (inactive) |  |  |
